Values of other authors in publication PMC2375353, “Effective treatment of experimental U-87MG human glioblastoma in nude mice with a targeted cytotoxic bombesin analogue, AN-215” (British Journal of Cancer, 2002).

What was measured:
[1] = system: H-69 human small-cell lung carcinoma; settings: ref Kiaris et al, 1999a; cited from earlier work
Description: (§1) Current treatment options for malignant gliomas, including surgery, radiation, and chemotherapy, are of limited effectiveness, and novel therapeutic modalities must be explored. Targeting of antineoplastic agents to cancer cells by linking them to a ligand with high affinity for tumour cells should improve tumour growth inhibition and decrease peripheral toxicity ([Schally and Nagy, 1999]). The presence of high affinity receptors for bombesin (BN)-like peptides on a wide variety of tumours prompted us to employ some of our powerful BN/gastrin releasing peptide (GRP) antagonists as carrier mole ...

[2] = system: PC-3 human androgen-independent prostate cancer; settings: ref Plonowski et al, 2000; cited from earlier work
Description: as §1

[3] = system: BN receptors on Swiss 3T3 fibroblasts; settings: ref Nagy et al, 1997; cited from earlier work
Description: as §1

Gln-Trp-Ala-Val-Gly-His-Leu-ψ(CH2-NH)-Leu-NH2 [AN-215]
Inhibition of H-69 human small-cell lung carcinoma [1]: effectively inhibit
Inhibition of PC-3 human androgen-independent prostate cancer [2]: effectively inhibit
Affinity to BN receptors [3]: high affinity
